From ChEMBL document CHEMBL3885881, “DrugMatrix”
“And” between values parts separate entries of the source, which are not always exact repeats. Equal entries are not always repeated.

Species on record: Rattus norvegicus
Assay: DrugMatrix - Regimen: Daily Repeat
Assay type: toxicity, organism-based, Sprague-Dawley
Parameters: regimen Daily Repeat, gender Male, age 6-8 weeks
Conditions: in vivo, po, route oral GAVAGE; for ABSOLUTE BASOPHIL / ABSOLUTE LYMPHOCYTE / ABSOLUTE MONOCYTE / ABSOLUTE SEGMENTED NEUTROPHIL / BASOPHIL / EOSINOPHIL / ERYTHROCYTE COUNT / HEMATOCRIT / HEMOGLOBIN / LEUKOCYTE COUNT / LYMPHOCYTE / MEAN CORPUSCULAR HEMOGLOBIN / MEAN CORPUSCULAR HEMOGLOBIN CONCENTRATION / MEAN CORPUSCULAR VOLUME / MONOCYTE / NEUTROPHIL / NUCLEATED RED BLOOD CELLS / PLATELET COUNT / ABSOLUTE EOSINOPHIL: tissue Blood; for ALANINE AMINOTRANSFERASE / ALBUMIN / ALKALINE PHOSPHATASE / ASPARTATE AMINOTRANSFERASE / BLOOD UREA NITROGEN / CARBON DIOXIDE / CHLORIDE / CHOLESTEROL / CREATINE PHOSPHOKINASE / CREATININE / GLUCOSE / LACTATE DEHYDROGENASE / LIPASE / PHOSPHORUS / POTASSIUM / SODIUM / TOTAL BILIRUBIN / TOTAL PROTEIN / URIC ACID: tissue Plasma
[1] = 0 mg/kg, 72 h, dose level Control, time 3 day, vehicle 100 % WATER
[2] = 0 mg/kg, 120 h, dose level Control, time 5 day, vehicle 100 % WATER
[3] = 4.5 mg/kg, 72 h, dose level Low, time 3 day, vehicle 100 % WATER
[4] = 4.5 mg/kg, 120 h, dose level Low, time 5 day, vehicle 100 % WATER
[5] = 7 mg/kg, 96 h, dose level M1, time 4 day, […]

COc1ccc2c(c1)c(CC(=O)O)c(C)n2C(=O)c1ccc(Cl)cc1 [INDOMETHACIN]
ABSOLUTE BASOPHIL [1]: 0 CELLS/uL
ABSOLUTE LYMPHOCYTE [1]: 6747 CELLS/uL and 14108.83 CELLS/uL
ABSOLUTE MONOCYTE [1]: 73 CELLS/uL and 81 CELLS/uL
ABSOLUTE SEGMENTED NEUTROPHIL [1]: 480 CELLS/uL and 818.67 CELLS/uL
BASOPHIL [1]: 0%
EOSINOPHIL [1]: 0% and 0.67%
ERYTHROCYTE COUNT [1]: 5.14 x10E6/uL and 5.56 x10E6/uL
HEMATOCRIT [1]: 32.27% and 34.5%
HEMOGLOBIN [1]: 12.53 G/DL and 13.45 G/DL
LEUKOCYTE COUNT [1]: 7.3 x10E3/uL and 15.1 x10E3/uL
LYMPHOCYTE [1]: 93%
MEAN CORPUSCULAR HEMOGLOBIN [1]: 24.37 pg and 24.2 pg
MEAN CORPUSCULAR HEMOGLOBIN CONCENTRATION [1]: 38.87 G/DL and 38.98 G/DL
MEAN CORPUSCULAR VOLUME [1]: 62.7 fL and 62.07 fL
MONOCYTE [1]: 1% and 0.5%
NEUTROPHIL [1]: 6% and 5.83%
NUCLEATED RED BLOOD CELLS [1]: 0 /100WBC
PLATELET COUNT [1]: 1023 x10E3/uL and 1193.33 x10E3/uL
ALANINE AMINOTRANSFERASE [1]: 49.33 u/L and 60.33 u/L
ALBUMIN [1]: 3.73 G/DL and 4 G/DL
ALKALINE PHOSPHATASE [1]: 331 u/L and 334.83 u/L
ASPARTATE AMINOTRANSFERASE [1]: 79.67 u/L and 74.5 u/L
BLOOD UREA NITROGEN [1]: 15.33 mg/dL and 13.5 mg/dL
CARBON DIOXIDE [1]: 30.33 mmol/L
CHLORIDE [1]: 100.67 MEQ/L and 98.33 MEQ/L
CHOLESTEROL [1]: 77 mg/dL and 71.17 mg/dL
CREATINE PHOSPHOKINASE [1]: 319.67 u/L and 212 u/L
CREATININE [1]: 0.11 mg/dL and 0.21 mg/dL
GLUCOSE [1]: 169 mg/dL and 173.17 mg/dL
LACTATE DEHYDROGENASE [1]: 113.33 u/L and 101.5 u/L
LIPASE [1]: 10.33 u/L and 24.17 u/L
PHOSPHORUS [1]: 11.97 mg/dL and 10.87 mg/dL
POTASSIUM [1]: 5.06 MEQ/L and 6.06 MEQ/L
SODIUM [1]: 144.13 MEQ/L and 140.58 MEQ/L
TOTAL BILIRUBIN [1]: 0.2 mg/dL and 0.17 mg/dL
TOTAL PROTEIN [1]: 5.8 G/DL and 5.9 G/DL
URIC ACID [1]: 0.57 mg/dL and 1.23 mg/dL
ABSOLUTE BASOPHIL [2]: 0 CELLS/uL
ABSOLUTE EOSINOPHIL [2]: 31.33 CELLS/uL and 34.5 CELLS/uL
ABSOLUTE LYMPHOCYTE [2]: 7806.33 CELLS/uL and 8181 CELLS/uL
ABSOLUTE MONOCYTE [2]: 202 CELLS/uL and 82.67 CELLS/uL
ABSOLUTE SEGMENTED NEUTROPHIL [2]: 927 CELLS/uL and 435.17 CELLS/uL
BASOPHIL [2]: 0%
EOSINOPHIL [2]: 0.33% and 0.5%
ERYTHROCYTE COUNT [2]: 4.96 x10E6/uL and 5.31 x10E6/uL
HEMATOCRIT [2]: 32.37% and 33.83%
HEMOGLOBIN [2]: 12.53 G/DL and 13.37 G/DL
LEUKOCYTE COUNT [2]: 8.97 x10E3/uL and 8.73 x10E3/uL
LYMPHOCYTE [2]: 87.33% and 93.5%
MEAN CORPUSCULAR HEMOGLOBIN [2]: 25.27 pg and 25.2 pg
MEAN CORPUSCULAR HEMOGLOBIN CONCENTRATION [2]: 38.7 G/DL and 39.53 G/DL
MEAN CORPUSCULAR VOLUME [2]: 65.23 fL and 63.73 fL
MONOCYTE [2]: 2.33% and 1%
NEUTROPHIL [2]: 10% and 5%
NUCLEATED RED BLOOD CELLS [2]: 0 /100WBC
PLATELET COUNT [2]: 1189.33 x10E3/uL and 1057.33 x10E3/uL
ALANINE AMINOTRANSFERASE [2]: 53.33 u/L and 54.33 u/L
ALBUMIN [2]: 3.97 G/DL and 4.07 G/DL
ALKALINE PHOSPHATASE [2]: 326 u/L and 308.67 u/L
ASPARTATE AMINOTRANSFERASE [2]: 59.67 u/L and 83.17 u/L
BLOOD UREA NITROGEN [2]: 15 mg/dL and 14 mg/dL
CARBON DIOXIDE [2]: 33.67 mmol/L and 34 mmol/L
CHLORIDE [2]: 105 MEQ/L and 98 MEQ/L
CHOLESTEROL [2]: 73 mg/dL and 71.33 mg/dL
CREATINE PHOSPHOKINASE [2]: 208.33 u/L and 266.5 u/L
CREATININE [2]: 0.1 mg/dL and 0.27 mg/dL
GLUCOSE [2]: 153.33 mg/dL and 133 mg/dL
LACTATE DEHYDROGENASE [2]: 62 u/L and 127 u/L
LIPASE [2]: 10.33 u/L and 11.67 u/L
PHOSPHORUS [2]: 10.93 mg/dL and 10.6 mg/dL
POTASSIUM [2]: 5.5 MEQ/L and 6.17 MEQ/L
SODIUM [2]: 147.27 MEQ/L and 142.68 MEQ/L
TOTAL BILIRUBIN [2]: 0.17 mg/dL and 0.15 mg/dL
TOTAL PROTEIN [2]: 5.87 G/DL and 6.03 G/DL
URIC ACID [2]: 0.4 mg/dL and 0.75 mg/dL
ABSOLUTE BASOPHIL [3]: 0 CELLS/uL
ABSOLUTE EOSINOPHIL [3]: 0 CELLS/uL
ABSOLUTE LYMPHOCYTE [3]: 7564.67 CELLS/uL
ABSOLUTE MONOCYTE [3]: 197.67 CELLS/uL
ABSOLUTE SEGMENTED NEUTROPHIL [3]: 937.67 CELLS/uL
BASOPHIL [3]: 0%
EOSINOPHIL [3]: 0%
ERYTHROCYTE COUNT [3]: 5.16 x10E6/uL
HEMATOCRIT [3]: 32.73%
HEMOGLOBIN [3]: 13.1 G/DL
LEUKOCYTE COUNT [3]: 8.7 x10E3/uL
LYMPHOCYTE [3]: 87.33%
MEAN CORPUSCULAR HEMOGLOBIN [3]: 25.43 pg
MEAN CORPUSCULAR HEMOGLOBIN CONCENTRATION [3]: 40.03 G/DL
MEAN CORPUSCULAR VOLUME [3]: 63.57 fL
MONOCYTE [3]: 2.33%
NEUTROPHIL [3]: 10.33%
NUCLEATED RED BLOOD CELLS [3]: 0 /100WBC
PLATELET COUNT [3]: 1131.67 x10E3/uL
ALANINE AMINOTRANSFERASE [3]: 52.67 u/L
ALBUMIN [3]: 3.9 G/DL
ALKALINE PHOSPHATASE [3]: 367 u/L
ASPARTATE AMINOTRANSFERASE [3]: 74.33 u/L
BLOOD UREA NITROGEN [3]: 13.67 mg/dL
CARBON DIOXIDE [3]: 24.67 mmol/L
CHLORIDE [3]: 94 MEQ/L
CHOLESTEROL [3]: 72.33 mg/dL
CREATINE PHOSPHOKINASE [3]: 273.33 u/L
CREATININE [3]: 0.1 mg/dL
GLUCOSE [3]: 165 mg/dL
LACTATE DEHYDROGENASE [3]: 101.67 u/L
LIPASE [3]: 9 u/L
PHOSPHORUS [3]: 11.6 mg/dL
POTASSIUM [3]: 5.46 MEQ/L
SODIUM [3]: 137.1 MEQ/L
TOTAL BILIRUBIN [3]: 0.13 mg/dL
TOTAL PROTEIN [3]: 5.7 G/DL
URIC ACID [3]: 0.8 mg/dL
ABSOLUTE BASOPHIL [4]: 0 CELLS/uL
ABSOLUTE EOSINOPHIL [4]: 66.67 CELLS/uL
ABSOLUTE LYMPHOCYTE [4]: 7873.33 CELLS/uL
ABSOLUTE MONOCYTE [4]: 253.33 CELLS/uL
ABSOLUTE SEGMENTED NEUTROPHIL [4]: 1273.33 CELLS/uL
BASOPHIL [4]: 0%
EOSINOPHIL [4]: 0.67%
ERYTHROCYTE COUNT [4]: 4.7 x10E6/uL
HEMATOCRIT [4]: 30.3%
HEMOGLOBIN [4]: 12.03 G/DL
LEUKOCYTE COUNT [4]: 9.47 x10E3/uL
LYMPHOCYTE [4]: 83%
MEAN CORPUSCULAR HEMOGLOBIN [4]: 25.6 pg
MEAN CORPUSCULAR HEMOGLOBIN CONCENTRATION [4]: 39.67 G/DL
MEAN CORPUSCULAR VOLUME [4]: 64.47 fL
MONOCYTE [4]: 2.67%
NEUTROPHIL [4]: 13.67%
NUCLEATED RED BLOOD CELLS [4]: 0 /100WBC
PLATELET COUNT [4]: 1362.67 x10E3/uL
ALANINE AMINOTRANSFERASE [4]: 48.67 u/L
ALBUMIN [4]: 3.83 G/DL
ALKALINE PHOSPHATASE [4]: 350.67 u/L
ASPARTATE AMINOTRANSFERASE [4]: 60.67 u/L
BLOOD UREA NITROGEN [4]: 12 mg/dL
CARBON DIOXIDE [4]: 32 mmol/L
CHLORIDE [4]: 105 MEQ/L
CHOLESTEROL [4]: 66.67 mg/dL
CREATINE PHOSPHOKINASE [4]: 173.67 u/L
CREATININE [4]: 0.11 mg/dL
GLUCOSE [4]: 154 mg/dL
LACTATE DEHYDROGENASE [4]: 70.33 u/L
LIPASE [4]: 9.67 u/L
PHOSPHORUS [4]: 11 mg/dL
POTASSIUM [4]: 5.99 MEQ/L
SODIUM [4]: 146.87 MEQ/L
TOTAL BILIRUBIN [4]: 0.2 mg/dL
TOTAL PROTEIN [4]: 5.77 G/DL
URIC ACID [4]: 0.53 mg/dL
ABSOLUTE BASOPHIL [5]: 0 CELLS/uL
ABSOLUTE EOSINOPHIL [5]: 0 CELLS/uL
ABSOLUTE LYMPHOCYTE [5]: 6250 cells/µL
ABSOLUTE MONOCYTE [5]: 160 cells/µL
BASOPHIL [5]: 0%
EOSINOPHIL [5]: 0%
ERYTHROCYTE COUNT [5]: 3.97 x10E6/uL
HEMATOCRIT [5]: 25.4%
HEMOGLOBIN [5]: 8.9 G/DL
LEUKOCYTE COUNT [5]: 12.7 x10E3/uL
LYMPHOCYTE [5]: 78.5%
MEAN CORPUSCULAR HEMOGLOBIN [5]: 22.6 pg
MEAN CORPUSCULAR HEMOGLOBIN CONCENTRATION [5]: 35.1 G/DL
MEAN CORPUSCULAR VOLUME [5]: 64.5 fL
MONOCYTE [5]: 2%
NEUTROPHIL [5]: 19.5%
